ChEMBL document CHEMBL1201862, “PubChem BioAssay data set” (2004)
The source made the active and inactive calls.

Assays:
[1] = molecular target: T1, Polyadenylate-binding protein 1 (Homo sapiens, UniProt P11940); assay: PABP1 MLLE–PAM2 binding inhibitor potency, dose response, biochemical, fluorescence polarization, FITC-PAM2 peptide (AID 602259); assay type: functional; conditions: read-out: IC50_Mean
[2] = molecular target: Estrogen receptor beta (Homo sapiens, UniProt Q92731); assay: ERβ–SRC-3 coactivator interaction inhibitors, confirmation, orthogonal assay, biochemical, ELISA, streptavidin-HRP readout (AID 1060)
[3] = molecular target: T1, Polyadenylate-binding protein 1; assay: PABP1 MLLE–PAM2 interaction inhibitors, dose response, miRNA deadenylation inhibitor project, biochemical, fluorescence polarization, Cy5-PAM2 peptide, secondary (AID 602260); assay type: functional; conditions: read-out: IC50_Mean
[4] = molecular target: T2, Bcl-2-like protein 10 (Homo sapiens, UniProt Q9HD36); assay: displacers of TR3 peptide from Bcl-B, primary screen, selectivity assay for Bfl-1 inhibitor project, biochemical, fluorescence polarization, FITC-TR3 peptide (AID 748);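 also: fluorescence polarization from a fluorescein-labelled TR3 peptide binding purified Bcl-B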
T2 sequence (Q9HD36 whole entry): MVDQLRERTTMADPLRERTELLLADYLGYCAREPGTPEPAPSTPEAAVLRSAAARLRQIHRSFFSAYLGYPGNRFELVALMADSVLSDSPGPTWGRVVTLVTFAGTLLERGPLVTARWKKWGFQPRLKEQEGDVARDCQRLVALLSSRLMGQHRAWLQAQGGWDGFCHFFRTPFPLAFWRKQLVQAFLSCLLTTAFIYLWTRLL

[5] = molecular target: T3, Replicative DNA helicase DnaB (Mycobacterium tuberculosis, UniProt P9WMR3); assay: DnaB intein splicing inhibitors, dose response, biochemical, cell-free fluorescence (AID 449749); assay type: functional
T3 sequence (P9WMR3 whole entry): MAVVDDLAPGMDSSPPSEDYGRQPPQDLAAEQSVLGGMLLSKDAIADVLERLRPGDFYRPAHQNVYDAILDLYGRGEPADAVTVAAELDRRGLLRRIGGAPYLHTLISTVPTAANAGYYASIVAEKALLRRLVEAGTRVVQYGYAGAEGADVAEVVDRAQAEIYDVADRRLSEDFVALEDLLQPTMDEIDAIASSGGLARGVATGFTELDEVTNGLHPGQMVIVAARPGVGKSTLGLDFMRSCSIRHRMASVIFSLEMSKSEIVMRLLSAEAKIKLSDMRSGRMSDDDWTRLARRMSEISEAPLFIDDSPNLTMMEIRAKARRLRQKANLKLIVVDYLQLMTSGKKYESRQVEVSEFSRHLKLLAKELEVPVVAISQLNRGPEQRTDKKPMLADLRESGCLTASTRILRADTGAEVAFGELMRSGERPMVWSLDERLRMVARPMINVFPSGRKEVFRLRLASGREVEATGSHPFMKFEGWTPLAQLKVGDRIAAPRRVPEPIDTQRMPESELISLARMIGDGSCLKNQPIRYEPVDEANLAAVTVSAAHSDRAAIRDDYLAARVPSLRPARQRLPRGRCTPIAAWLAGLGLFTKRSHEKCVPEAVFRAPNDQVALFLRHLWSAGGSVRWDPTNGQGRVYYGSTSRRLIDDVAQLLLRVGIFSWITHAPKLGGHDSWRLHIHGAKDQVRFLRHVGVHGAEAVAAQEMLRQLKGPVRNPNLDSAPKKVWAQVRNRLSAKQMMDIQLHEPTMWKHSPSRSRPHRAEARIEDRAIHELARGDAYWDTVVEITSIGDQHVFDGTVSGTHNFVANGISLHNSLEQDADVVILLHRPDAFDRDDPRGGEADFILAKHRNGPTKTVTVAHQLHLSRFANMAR

[6] = molecular target: T4, Protein RecA (Mycobacterium tuberculosis, UniProt P9WHJ3); assay: Fluorescence Cell-Free Homogeneous Dose Retest to Identify Inhibitors of RecA-Intein Splicing Activity. [Related pubchem assays (depositor defined):AID2097, AID2223, AID489010, AID492950]; assay type: functional
T4 sequence (P9WHJ3 whole entry): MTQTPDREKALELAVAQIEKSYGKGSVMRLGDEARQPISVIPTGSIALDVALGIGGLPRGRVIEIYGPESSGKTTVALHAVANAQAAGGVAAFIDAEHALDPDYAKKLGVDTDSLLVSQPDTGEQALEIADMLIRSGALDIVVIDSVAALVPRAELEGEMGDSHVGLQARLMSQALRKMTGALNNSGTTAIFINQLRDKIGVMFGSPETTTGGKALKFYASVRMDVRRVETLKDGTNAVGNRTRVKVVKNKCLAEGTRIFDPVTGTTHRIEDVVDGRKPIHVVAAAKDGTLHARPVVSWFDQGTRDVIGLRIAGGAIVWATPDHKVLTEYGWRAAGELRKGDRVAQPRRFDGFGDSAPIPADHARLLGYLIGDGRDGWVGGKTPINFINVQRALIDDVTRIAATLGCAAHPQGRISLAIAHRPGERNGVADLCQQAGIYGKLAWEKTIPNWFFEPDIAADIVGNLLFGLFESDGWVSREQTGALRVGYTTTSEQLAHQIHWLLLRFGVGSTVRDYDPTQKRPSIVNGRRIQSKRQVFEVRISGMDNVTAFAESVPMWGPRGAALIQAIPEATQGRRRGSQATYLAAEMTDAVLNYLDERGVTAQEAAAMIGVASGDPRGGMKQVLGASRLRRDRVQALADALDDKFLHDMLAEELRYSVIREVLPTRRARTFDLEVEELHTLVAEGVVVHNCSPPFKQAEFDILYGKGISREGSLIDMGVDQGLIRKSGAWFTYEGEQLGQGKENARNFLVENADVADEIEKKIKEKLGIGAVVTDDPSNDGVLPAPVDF

[7] = A cytotoxicity screen of small molecule inhibitors of the PhoP region in Salmonella typhi identified in the primary screen. [Related pubchem assays: 1850, 1864, 1985 ]; assay type: functional
[8] = molecular target: Acyl-homoserine lactone acylase PvdQ (Pseudomonas aeruginosa (strain LESB58), UniProt Q9I194); assay: P. aeruginosa PvdQ acylase inhibitors, dose response, biochemical, fluorescence, plate reader and imaging, cherry-picks (AID 493231)
[9] = M. tuberculosis H37Rv growth inhibitors, H37Rv strain (AID 1626); assay type: functional
[10] = molecular target: Cyclin-dependent kinase 5/CDK5 activator 1 (Homo sapiens, UniProt Q00535); assay: CDK5/p35 kinase inhibitors, dose response, biochemical, cherry-picked samples, set 2 (AID 504545)
[11] = molecular target: T5, Nucleotide-binding oligomerization domain-containing protein 1 (Homo sapiens, UniProt Q9Y239); assay: NOD1 signaling inhibitors, SAR follow-up, revised (AID 2333); assay type: functional
T5 sequence (Q9Y239 whole entry): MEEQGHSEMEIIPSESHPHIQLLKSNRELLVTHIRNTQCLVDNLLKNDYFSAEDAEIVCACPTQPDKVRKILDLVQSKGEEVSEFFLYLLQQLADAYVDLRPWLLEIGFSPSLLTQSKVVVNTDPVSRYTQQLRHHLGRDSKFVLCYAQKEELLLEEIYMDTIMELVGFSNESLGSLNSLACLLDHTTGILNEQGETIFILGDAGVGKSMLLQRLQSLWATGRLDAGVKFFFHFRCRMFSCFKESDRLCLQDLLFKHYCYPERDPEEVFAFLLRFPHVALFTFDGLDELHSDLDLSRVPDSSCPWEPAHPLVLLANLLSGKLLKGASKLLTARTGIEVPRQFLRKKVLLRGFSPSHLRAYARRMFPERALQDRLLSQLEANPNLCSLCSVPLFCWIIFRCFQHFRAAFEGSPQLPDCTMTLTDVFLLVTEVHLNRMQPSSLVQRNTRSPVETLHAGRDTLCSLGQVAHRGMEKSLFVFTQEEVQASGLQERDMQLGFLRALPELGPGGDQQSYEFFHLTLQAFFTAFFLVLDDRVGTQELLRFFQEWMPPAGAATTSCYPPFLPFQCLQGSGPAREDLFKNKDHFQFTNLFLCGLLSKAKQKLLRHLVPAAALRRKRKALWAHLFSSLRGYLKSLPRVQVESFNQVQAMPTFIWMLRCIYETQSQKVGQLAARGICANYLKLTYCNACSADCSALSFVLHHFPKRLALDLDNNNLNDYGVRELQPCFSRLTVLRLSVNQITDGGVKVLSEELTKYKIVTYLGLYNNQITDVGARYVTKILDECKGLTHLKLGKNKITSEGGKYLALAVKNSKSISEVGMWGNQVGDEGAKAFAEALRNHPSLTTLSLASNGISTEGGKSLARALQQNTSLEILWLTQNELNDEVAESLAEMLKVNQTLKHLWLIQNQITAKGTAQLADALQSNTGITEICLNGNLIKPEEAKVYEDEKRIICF

[12] = molecular target: T6, Heat shock factor protein 1 (Mus musculus, UniProt P38532); assay: inhibition of MG132-induced HSE-luciferase signal, confirmation, cell-based, NIH3T3, luminescence, dose retest (AID 2382); assay type: functional;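 also: NIH3T3 fibroblasts with HSF1-driven luciferase reporter stressed by proteasome inhibitor MG132; luminescence from HSF1-driven luciferase expression after 8 hours of MG132 stress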
T6 sequence (P38532 whole entry): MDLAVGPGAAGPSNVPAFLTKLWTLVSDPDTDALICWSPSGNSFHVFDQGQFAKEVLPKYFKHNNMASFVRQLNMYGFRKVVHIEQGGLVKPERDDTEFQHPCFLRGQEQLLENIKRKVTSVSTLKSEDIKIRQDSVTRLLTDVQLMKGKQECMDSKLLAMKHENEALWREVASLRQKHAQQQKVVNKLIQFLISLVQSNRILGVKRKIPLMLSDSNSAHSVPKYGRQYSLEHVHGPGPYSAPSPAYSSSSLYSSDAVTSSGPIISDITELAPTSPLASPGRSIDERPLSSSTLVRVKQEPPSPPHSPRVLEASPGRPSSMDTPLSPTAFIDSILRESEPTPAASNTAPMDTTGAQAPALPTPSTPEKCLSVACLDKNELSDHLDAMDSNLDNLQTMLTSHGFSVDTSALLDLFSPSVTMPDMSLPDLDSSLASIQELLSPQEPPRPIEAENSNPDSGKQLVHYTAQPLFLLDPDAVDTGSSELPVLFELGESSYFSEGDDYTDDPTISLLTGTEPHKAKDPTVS

[13] = molecular target: Tumor necrosis factor (Homo sapiens, UniProt P01375); assay: TNFa-triggered NF-kB activation inhibitors, SAR follow-up, cell-based, revised (AID 2337); assay type: functional
[14] = molecular target: Peroxisome proliferator-activated receptor gamma/Nuclear receptor coactivator 2 (Homo sapiens, UniProt P37231); assay type: functional;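 also: agonist potency for raising coactivator recruitment to the receptor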
[15] = molecular target: Peroxisome proliferator-activated receptor gamma/Nuclear receptor coactivator 3 (Homo sapiens, UniProt P37231); assay type: functional;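 also: agonist potency for raising coactivator recruitment to the receptor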
[16] = molecular target: Peroxisome proliferator-activated receptor gamma/Nuclear receptor corepressor 2 (Homo sapiens, UniProt P37231+Q9Y618); assay type: functional
[17] = molecular target: Photoreceptor-specific nuclear receptor (Homo sapiens, UniProt Q9Y5X4); assay type: functional;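 also: potency for compounds that break the NR2E3 corepressor complex and count as activators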
[18] = molecular target: Peroxisome proliferator-activated receptor gamma/Nuclear receptor coactivator 1 (Homo sapiens, UniProt P37231); assay type: functional;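 also: agonist potency as compounds enhance coactivator SRC-1 recruitment to PPARgamma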
[19] = molecular target: T7, Small ubiquitin-related modifier 1 (Homo sapiens, UniProt P63165); assay: inhibitors of SUMO1 partner interactions, dose response, biochemical, FRET (AID 624383); assay type: functional; conditions: read-out: IC50_Mean
[20] = molecular target: T7, Small ubiquitin-related modifier 1; assay: inhibitors of SUMO1 peptide binding, dose response, biochemical, fluorescence polarization, uHTS hits (AID 624382); assay type: functional; conditions: read-out: IC50_Mean

Acyl-homoserine lactone acylase PvdQ, sequence (Q9I194 24-193 limits assumed): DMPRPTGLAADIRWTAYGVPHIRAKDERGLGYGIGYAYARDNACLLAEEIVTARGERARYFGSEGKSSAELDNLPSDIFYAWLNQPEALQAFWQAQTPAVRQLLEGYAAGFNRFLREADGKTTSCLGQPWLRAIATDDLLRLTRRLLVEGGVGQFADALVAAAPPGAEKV
Acyl-homoserine lactone acylase PvdQ, sequence (Q9I194 217-762 limits assumed): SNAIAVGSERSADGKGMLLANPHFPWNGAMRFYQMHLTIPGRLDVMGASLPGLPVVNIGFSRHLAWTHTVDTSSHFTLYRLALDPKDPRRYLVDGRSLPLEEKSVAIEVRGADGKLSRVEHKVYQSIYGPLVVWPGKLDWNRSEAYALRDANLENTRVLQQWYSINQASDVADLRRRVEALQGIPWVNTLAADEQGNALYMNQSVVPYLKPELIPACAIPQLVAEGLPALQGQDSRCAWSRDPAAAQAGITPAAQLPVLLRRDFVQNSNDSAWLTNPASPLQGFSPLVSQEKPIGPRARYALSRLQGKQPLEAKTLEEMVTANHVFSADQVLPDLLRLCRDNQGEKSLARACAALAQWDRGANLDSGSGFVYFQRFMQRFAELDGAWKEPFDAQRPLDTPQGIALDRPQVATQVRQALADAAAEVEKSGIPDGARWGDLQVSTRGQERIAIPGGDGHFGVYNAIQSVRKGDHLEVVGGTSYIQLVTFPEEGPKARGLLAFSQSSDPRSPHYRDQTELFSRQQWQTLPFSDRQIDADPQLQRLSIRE
Cyclin-dependent kinase 5/CDK5 activator 1, sequence (Q00535 whole entry, the tested form may be a part): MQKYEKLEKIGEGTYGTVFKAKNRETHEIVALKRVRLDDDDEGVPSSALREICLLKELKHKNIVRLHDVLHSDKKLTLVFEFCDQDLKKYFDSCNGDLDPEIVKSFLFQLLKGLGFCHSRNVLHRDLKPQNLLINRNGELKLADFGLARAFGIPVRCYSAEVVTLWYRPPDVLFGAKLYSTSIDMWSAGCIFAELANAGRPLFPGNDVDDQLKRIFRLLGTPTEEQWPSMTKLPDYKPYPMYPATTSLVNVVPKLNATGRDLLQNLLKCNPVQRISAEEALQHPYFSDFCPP
Cyclin-dependent kinase 5/CDK5 activator 1, sequence (Q15078 whole entry, further chain, the tested form may be a part): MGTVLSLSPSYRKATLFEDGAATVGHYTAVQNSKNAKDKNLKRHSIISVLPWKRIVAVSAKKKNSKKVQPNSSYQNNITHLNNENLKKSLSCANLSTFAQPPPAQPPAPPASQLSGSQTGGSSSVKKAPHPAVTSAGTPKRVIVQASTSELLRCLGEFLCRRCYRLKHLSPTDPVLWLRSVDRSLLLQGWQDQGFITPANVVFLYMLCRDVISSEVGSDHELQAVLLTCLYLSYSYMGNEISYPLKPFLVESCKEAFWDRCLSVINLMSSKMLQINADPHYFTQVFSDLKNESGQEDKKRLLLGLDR
T1 sequence (P11940 whole entry): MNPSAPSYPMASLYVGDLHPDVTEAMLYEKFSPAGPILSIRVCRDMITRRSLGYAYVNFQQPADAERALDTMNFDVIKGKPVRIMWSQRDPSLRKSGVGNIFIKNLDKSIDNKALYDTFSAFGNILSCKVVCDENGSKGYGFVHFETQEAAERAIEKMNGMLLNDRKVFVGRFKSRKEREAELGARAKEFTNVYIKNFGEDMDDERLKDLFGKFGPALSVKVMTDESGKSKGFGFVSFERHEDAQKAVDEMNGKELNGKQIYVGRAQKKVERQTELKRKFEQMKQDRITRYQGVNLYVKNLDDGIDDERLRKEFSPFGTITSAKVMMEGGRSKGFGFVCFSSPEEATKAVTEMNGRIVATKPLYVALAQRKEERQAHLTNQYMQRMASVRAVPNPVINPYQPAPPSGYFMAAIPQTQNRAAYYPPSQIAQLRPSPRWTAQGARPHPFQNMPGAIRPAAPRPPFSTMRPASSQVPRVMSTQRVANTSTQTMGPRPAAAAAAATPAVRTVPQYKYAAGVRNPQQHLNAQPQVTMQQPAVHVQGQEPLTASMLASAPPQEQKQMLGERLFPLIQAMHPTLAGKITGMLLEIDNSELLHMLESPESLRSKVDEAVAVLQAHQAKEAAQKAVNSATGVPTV
T7 sequence (P63165 whole entry): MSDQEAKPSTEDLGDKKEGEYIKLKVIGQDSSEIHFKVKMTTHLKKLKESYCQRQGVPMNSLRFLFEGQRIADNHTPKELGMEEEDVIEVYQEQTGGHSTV
Peroxisome proliferator-activated receptor gamma/Nuclear receptor coactivator 1, sequence (P37231 whole entry): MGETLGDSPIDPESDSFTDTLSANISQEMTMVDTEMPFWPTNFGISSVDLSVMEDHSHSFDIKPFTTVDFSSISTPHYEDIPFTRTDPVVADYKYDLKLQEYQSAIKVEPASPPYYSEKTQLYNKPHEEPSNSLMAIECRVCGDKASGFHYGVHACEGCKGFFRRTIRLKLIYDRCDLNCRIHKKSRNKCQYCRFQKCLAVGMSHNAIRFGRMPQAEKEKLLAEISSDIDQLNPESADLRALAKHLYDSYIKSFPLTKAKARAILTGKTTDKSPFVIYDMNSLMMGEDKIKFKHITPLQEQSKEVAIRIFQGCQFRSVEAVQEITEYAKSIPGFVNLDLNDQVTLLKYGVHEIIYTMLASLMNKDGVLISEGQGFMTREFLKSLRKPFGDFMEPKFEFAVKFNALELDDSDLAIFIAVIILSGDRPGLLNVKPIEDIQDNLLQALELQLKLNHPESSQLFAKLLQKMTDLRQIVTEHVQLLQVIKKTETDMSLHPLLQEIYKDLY
Peroxisome proliferator-activated receptor gamma/Nuclear receptor coactivator 1, sequence (Q15788 whole entry, further chain): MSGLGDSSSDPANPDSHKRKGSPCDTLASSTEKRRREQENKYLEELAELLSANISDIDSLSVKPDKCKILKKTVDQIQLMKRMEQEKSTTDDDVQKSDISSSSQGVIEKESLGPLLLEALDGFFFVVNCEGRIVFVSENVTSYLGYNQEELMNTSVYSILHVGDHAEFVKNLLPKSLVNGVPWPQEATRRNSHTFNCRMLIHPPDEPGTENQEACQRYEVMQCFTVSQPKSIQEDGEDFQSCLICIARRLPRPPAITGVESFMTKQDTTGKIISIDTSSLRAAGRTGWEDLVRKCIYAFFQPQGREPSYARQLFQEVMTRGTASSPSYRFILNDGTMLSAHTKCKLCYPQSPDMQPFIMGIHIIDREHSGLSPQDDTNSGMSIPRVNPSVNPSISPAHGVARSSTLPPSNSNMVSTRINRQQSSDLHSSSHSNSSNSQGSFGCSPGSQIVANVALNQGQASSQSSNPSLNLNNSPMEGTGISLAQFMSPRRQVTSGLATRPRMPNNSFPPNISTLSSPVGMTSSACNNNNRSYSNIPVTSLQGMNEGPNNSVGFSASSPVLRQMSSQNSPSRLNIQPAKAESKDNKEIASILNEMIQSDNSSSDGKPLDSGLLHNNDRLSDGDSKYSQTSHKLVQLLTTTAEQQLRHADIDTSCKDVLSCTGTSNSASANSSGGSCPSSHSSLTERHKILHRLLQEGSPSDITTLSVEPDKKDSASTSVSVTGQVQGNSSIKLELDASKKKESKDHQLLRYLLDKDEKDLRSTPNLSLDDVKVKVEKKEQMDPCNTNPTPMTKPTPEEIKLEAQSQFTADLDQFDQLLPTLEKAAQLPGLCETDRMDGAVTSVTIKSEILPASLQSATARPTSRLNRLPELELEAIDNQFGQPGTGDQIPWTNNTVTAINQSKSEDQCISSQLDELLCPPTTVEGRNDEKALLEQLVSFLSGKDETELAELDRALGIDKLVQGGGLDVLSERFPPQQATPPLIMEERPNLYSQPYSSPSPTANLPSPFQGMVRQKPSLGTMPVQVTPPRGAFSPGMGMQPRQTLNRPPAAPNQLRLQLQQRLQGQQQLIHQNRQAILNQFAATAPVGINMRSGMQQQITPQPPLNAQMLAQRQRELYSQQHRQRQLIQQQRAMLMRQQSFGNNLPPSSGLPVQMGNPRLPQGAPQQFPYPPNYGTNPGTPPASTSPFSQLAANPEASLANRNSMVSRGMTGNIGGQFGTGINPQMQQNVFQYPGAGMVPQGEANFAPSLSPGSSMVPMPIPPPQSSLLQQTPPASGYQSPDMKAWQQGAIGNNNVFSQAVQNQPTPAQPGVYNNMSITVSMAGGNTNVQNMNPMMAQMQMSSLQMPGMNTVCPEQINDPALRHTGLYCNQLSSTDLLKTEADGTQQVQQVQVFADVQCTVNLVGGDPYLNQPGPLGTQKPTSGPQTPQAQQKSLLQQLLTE
Estrogen receptor beta, sequence (Q92731 whole entry): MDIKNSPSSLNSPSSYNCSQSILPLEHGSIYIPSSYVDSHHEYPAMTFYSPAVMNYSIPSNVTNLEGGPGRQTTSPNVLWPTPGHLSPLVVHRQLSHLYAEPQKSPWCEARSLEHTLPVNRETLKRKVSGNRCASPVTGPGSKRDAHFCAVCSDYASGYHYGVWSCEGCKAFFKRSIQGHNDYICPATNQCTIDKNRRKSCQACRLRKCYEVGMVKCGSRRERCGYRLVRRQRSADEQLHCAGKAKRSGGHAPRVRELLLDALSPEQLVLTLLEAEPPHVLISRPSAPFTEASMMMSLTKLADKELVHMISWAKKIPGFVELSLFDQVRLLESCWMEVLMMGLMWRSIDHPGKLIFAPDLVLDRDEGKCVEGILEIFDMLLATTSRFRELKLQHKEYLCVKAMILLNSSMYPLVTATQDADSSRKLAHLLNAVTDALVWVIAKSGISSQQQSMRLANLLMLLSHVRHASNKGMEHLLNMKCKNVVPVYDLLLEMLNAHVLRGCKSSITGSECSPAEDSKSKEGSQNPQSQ
Tumor necrosis factor, sequence (P01375 whole entry): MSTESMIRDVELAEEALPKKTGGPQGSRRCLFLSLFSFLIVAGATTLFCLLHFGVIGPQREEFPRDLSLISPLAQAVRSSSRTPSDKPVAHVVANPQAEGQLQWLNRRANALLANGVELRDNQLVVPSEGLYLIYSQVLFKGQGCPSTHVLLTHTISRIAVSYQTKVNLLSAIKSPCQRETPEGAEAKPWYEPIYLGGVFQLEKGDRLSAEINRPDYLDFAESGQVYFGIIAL

## Cc1cc(C)c2cc3c(ccn3C3OC[C@H](O)[C@H](O)[C@H]3O)cc2n1 (stereo partly drawn)
[1]
  IC50: 57.6 µM (inactive)
[2]
  IC50: < 0.023 µM (not active)
[3]
  IC50: > 66 µM (inactive)
[4]
  IC50: > 6.25 µM (inactive)

## COc1ccc(C2C(C#N)=C(N)Oc3[nH]nc(C)c32)cc1CSc1ccccn1 (stereo not drawn)
[5]
  AC50: 9.71 µM (active)
[6]
  EC50: 6.32 µM (active)
[7]
  EC50: > 50 µM (active)

## O=[N+]([O-])c1ccc(N2CCCCC2)cc1
[8]
  AC50: 6.52 µM (active)

## CC(C)Cc1c(O)nc(SCC(=O)Nc2ccc3c(c2)CCC3)nc1O
[7]
  EC50: > 50 µM (active)
[9]
  IC50: > 100 µM (active)

## O=C1C2C(C(=O)N1Cc1ccco1)C1C=CC2C12CC2 (stereo not drawn)
[8]
  AC50: 2.42 µM (active)

## Cc1ccc(C(=O)ON=C(N)c2ccccn2)c(C)c1
[10]
  AC50: 11.8 µM (active)
[11]
  IC50: 0.772 µM (active)
[12]
  EC50: < 0.16 µM (active)
[13]
  IC50: 0.0706 µM (active)

## CCc1cc2cc3c(cc2nc1SCC(=O)Nc1cc(C)on1)OCO3
[14]
  EC50: > 79.4 µM (not active)
[15]
  EC50: > 79.4 µM (not active)
[16]
  IC50: 1.54 µM (active)
[17]
  IC50: > 39.8 µM (not active)
[18]
  EC50: > 79.4 µM (not active)

## CC(C)[C@H](CO)Nc1nc(Nc2ccc(Cl)c(C(=O)O)c2)c2ncn(C(C)C)c2n1
[10]
  AC50: 9.44 µM (active)
[19]
  IC50: 21.4 µM (inactive)
[20]
  IC50: > 66.6 µM (inactive)
